According to PubChem BioAssay (NCI):
Where “and” joins values, the source holds several entries; their conditions need not be identical. Identical values can stand only once.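 Dose response: 5 concentrations. Exposure: 48 h. Format: 96-well plates. Endpoint: linear interpolation; highest concentration if not reached. GI50 is the concentration that inhibits growth by half. TGI denotes the concentration required for complete inhibition of growth.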

Experiments:
Test in all cases: NCI tumour cell line growth inhibition, 48 h
[1] = tested on: OVCAR-5 ovarian
[2] = tested on: CAKI-1 renal
[3] = tested on: OVCAR-4 ovarian
[4] = tested on: NCI-H226 lung
[5] = tested on: MDA-MB-231 breast
[6] = tested on: HL-60(TB) leukemia
[7] = tested on: SR leukemia
[8] = tested on: HS 578T breast
[9] = tested on: M14 melanoma
[10] = tested on: SN12C renal

Row | Compound | TGI [1] | TGI [2] | TGI [3] | TGI [4] | TGI [5] | TGI [6] | TGI [7] | TGI [8] | TGI [9] | TGI [10] | GI50 [1] | GI50 [2] [µM] | GI50 [3] [µM] | GI50 [4] | GI50 [5] | GI50 [6] | GI50 [7] | GI50 [8] | GI50 [9] | GI50 [10] [µM]
1 | COc1ccc2c(=O)c3cc([N+](=O)[O-])ccc3n(C)c2c1 | > 100 µM | > 100 µM | > 100 µM | > 100 µM | > 100 µM | > 100 µM | > 100 µM | > 100 µM | > 100 µM | > 100 µM | – | – | – | – | – | – | – | – | – | –
2 | Cc1ccccc1N=Nc1c(O)[nH]c2ccccc12 | > 100 µM | > 100 µM | > 100 µM | > 100 µM | > 100 µM | > 100 µM | > 100 µM | > 100 µM | > 100 µM | > 100 µM | – | – | – | – | – | – | – | – | – | –
3 | COc1ccc(-c2nn(-c3cccc(NC(=O)Nc4cc(C(F)(F)F)cc(C(F)(F)F)c4)c3)cc2-c2ccncc2)cc1Cl | 9.17 µM | 9.44 µM | 4.86 µM | 6.35 µM | 2.12 µM | 3.63 µM | 3.13 µM | 5.52 µM | 2.51 µM | 7.95 µM | 1.4 µM | 1.07 | 1.1 | 1.33 µM | 0.85 µM | 1.24 µM | 1.02 µM | 1.17 µM | 0.913 µM | 1.27
4 | CNc1ccc(-c2cc(=O)oc3ccc(Cl)cc23)cc1 | > 100 µM | > 100 µM | > 100 µM | > 100 µM | > 100 µM | 2.05 µM and 1.14 µM | – | – | > 100 µM | > 100 µM | 0.795 µM and 0.457 µM | – | – | 0.719 µM and 4.05 µM | 1.07 µM and 0.424 µM | 0.0431 µM and 0.0317 µM | 0.0463 µM | 0.083 µM and 0.0725 µM | 0.0393 µM and 0.0313 µM | –
5 | O=C1c2ccccc2-c2c1c1ccccc1c(=O)n2CCCN1CCN(CCCn2c3c(c4ccccc4c2=O)C(=O)c2ccccc2-3)CC1 | > 100 µM | > 100 µM | > 100 µM | > 100 µM | 27.4 µM | > 100 µM | 17.9 µM | > 100 µM | > 100 µM | > 92 µM | > 100 µM | > 100 | > 100 | > 76.5 µM | 2.41 µM | 79.7 µM | 0.0809 µM | > 100 µM | > 100 µM | > 39.2
6 | COC(=O)Nc1nc2cc3c(cc2s1)OCCO3 | > 50 µM | > 50 µM | > 50 µM | > 50 µM | > 50 µM | > 50 µM | > 50 µM | > 50 µM | > 50 µM | > 50 µM | > 50 µM | > 50 | > 50 | > 50 µM | > 50 µM | > 50 µM | > 50 µM | > 50 µM | > 50 µM | > 50
7 | CC(=O)OC(C)(C)N=Nc1ccc(Br)cc1 | > 100 µM | 48.3 µM | > 100 µM | > 50.5 µM | > 100 µM | 28 µM | 43.3 µM | > 100 µM | > 100 µM | > 100 µM | – | – | – | – | – | – | – | – | – | –
8 | COc1cccc(C2C3=C(COC3=O)N(CCO)c3cc4c(cc32)OCCO4)c1 (configuration not stated) | > 50 µM | > 34.8 µM | > 50 µM | > 50 µM | 34.5 µM | 0.422 µM | – | 22.1 µM | 0.19 µM | > 50 µM | 0.427 µM | 0.145 | 0.472 | 7.26 µM | 0.257 µM | 0.111 µM | 0.0271 µM | 0.114 µM | 0.052 µM | –
9 | COc1ccc(C2=C(c3cc(OC)c(OC)c(OC)c3)C(=O)CC2)cc1 | > 100 µM | > 100 µM | > 100 µM | > 22.6 µM | > 100 µM | 1.21 µM | > 100 µM | – | 4.01 µM | > 100 µM | 0.662 µM | 0.76 | 0.689 | 0.425 µM | 0.62 µM | 0.11 µM | 0.0335 µM | 0.0827 µM | 0.107 µM | 0.676
10 | CN(C)CCCNc1nccc(-c2c(-c3ccc(F)cc3)nn3cc(C(F)(F)F)ccc23)n1 | > 25 µM | > 25 µM | > 25 µM | 11.2 µM | 11.1 µM | 10.9 µM | 12.6 µM | > 25 µM | 9.06 µM | > 25 µM | 11.2 µM | 12.3 | 11 | 3.72 µM | 3.83 µM | 4.55 µM | 5.15 µM | 7.7 µM | 4.37 µM | 15.3
11 | CC1=C(/C=C/C(C)=C/C=C/C(C)=C/C(=O)Nc2ccc(O)cc2)C(C)(C)CCC1 | 26.8 µM and 24 µM | 15.8 µM and 13.6 µM | 9.53 µM and 14.8 µM | 23.9 µM and 16.7 µM | 10.1 µM and 6.06 µM | 1.31 µM and 9.51 µM | 6.02 µM and 5.97 µM | 27.4 µM and 13.7 µM | 12.7 µM and 18.7 µM | 5.23 µM and 5.63 µM | 12.5 µM | 3.87 | 2.6 | 10.3 µM | 1.79 µM | 0.278 µM | 2.53 µM and 1.33 µM | 6.25 µM | 4.05 µM | 1.61
